Assay results from patent US6121512A, “Cytochrome P-450 constructs and method of producing herbicide-resistant transgenic plants” (North Carolina State University, priority 1997, dated 2000).

Columns and labels:
soybean CYP71A10 = target: T1, soybean CYP71A10 (Glycine max, UniProt O48918); test: In vitro herbicide metabolism assay and enzyme kinetics, microsomes of yeast expressing CYP71A10; type: biochemical
T1 construct: microsomes of yeast W(R) overexpressing endogenous P450 reductase
T1 sequence (O48918 1-513): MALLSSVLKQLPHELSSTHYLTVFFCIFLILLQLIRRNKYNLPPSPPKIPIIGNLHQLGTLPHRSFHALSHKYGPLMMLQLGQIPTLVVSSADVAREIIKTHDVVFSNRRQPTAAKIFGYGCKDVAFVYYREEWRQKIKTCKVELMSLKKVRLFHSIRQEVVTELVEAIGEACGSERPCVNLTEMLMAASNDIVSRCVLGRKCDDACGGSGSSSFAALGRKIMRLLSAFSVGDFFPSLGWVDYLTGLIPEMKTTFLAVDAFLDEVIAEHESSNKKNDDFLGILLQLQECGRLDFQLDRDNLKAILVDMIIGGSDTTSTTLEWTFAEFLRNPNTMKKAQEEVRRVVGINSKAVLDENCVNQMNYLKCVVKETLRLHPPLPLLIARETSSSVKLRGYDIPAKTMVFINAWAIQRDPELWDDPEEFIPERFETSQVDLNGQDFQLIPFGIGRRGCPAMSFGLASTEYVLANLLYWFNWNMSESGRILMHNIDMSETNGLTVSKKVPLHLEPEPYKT
T1 sequence (P16603 1-691 partner): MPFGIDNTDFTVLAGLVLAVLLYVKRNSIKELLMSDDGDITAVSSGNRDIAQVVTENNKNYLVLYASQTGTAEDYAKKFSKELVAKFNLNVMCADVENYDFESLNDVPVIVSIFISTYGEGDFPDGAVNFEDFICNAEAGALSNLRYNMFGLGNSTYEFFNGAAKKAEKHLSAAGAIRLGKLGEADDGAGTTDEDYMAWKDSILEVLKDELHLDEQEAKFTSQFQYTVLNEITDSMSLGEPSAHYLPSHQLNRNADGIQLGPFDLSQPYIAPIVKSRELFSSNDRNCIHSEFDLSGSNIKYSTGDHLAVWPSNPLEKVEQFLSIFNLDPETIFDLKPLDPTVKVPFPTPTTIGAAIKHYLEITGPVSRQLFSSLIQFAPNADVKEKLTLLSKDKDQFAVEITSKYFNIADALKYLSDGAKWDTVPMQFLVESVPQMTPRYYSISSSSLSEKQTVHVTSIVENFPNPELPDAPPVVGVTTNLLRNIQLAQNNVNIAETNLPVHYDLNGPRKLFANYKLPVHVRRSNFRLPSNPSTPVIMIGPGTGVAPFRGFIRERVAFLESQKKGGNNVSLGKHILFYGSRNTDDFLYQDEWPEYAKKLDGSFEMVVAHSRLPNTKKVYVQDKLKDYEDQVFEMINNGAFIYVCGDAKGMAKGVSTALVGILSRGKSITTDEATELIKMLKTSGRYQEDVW
Protocol: Yeast transformation was performed as described by Geitz et al., Nucleic Acids Research 20:1425 (1992). Media composition, culturing conditions, galactose induction, and microsomal preparations were conducted according to Pompon et al., Methods Enzymol. 272:51-64 (1995), using a culture volume of 250 ml. Microsomal protein was quantified spectrophotometrically using the method of Waddell, J. Lab. Clin. Med. 48:311-314 (1956), using bovine albumin as a standard. Dithionite-reduced, carbon monoxide difference spectra was obtained as previously outlined (Estabrook and Werringloer, Methods Ennzmol. 52:212-220 (1978)) using a Shimadzu Recording Spectrophotometer UV-240 (Shimadzu, Kyoto, Japan). P-450 protein concentrations of yeast microsomes were calculated using a millimolar extinction coefficient of 91 (Omura and Sato, J. Biol. Chem., 239:2370-2378 (1964)).
Yeast microsomes enriched for a discrete soybean P-450 isozyme were assayed for their capacity to metabolize the ten herbicides and one insecticide listed in Table 3. The reaction mixtures contained 10,000 DPM (100-200 ng) radiolabeled substrate, 0.75 mM NAPDH, 2.5 mg/ml microsomal protein. Total reaction volumes were adjusted to 150 μl with 50 mM phosphate buffer (pH 7.1). The mixtures were incubated under light for 45 minutes at 27° C., arrested with 50 μl acetone and centriftiged at 14 000×g for 2 minutes. […] Radiolabeled bentazon and imazaquin-containing samples were spotted onto 200 micron Whatman LKC18F silica gel reversed-phase plates. All plates were developed in a benzene/acetone 2:1 (v/v) solvent system with the exception of prosulfaron, developed in toluene/acetone/acetic acid, 75:20:5 (v/v/v), and bentazon and imazaquin, developed in methanol/75 mM sodium acetate 40:60 (v/v). The developed plates were scanned with a Bioscan System 400 imaging scanner (Bioscan, Washington, D.C.), and the production of metabolites was determined based on the chromatographic profiles. For microsomes containing the expressed CYP71A10 enzyme, control experiments were also conducted to measure the NADPH-dependency, and the inhibitory effects of CO. CO treatment of the sample was achieved by gentle bubbling of the gas through the reaction mixture for 2 minutes immediately before the assay was initiated by the addition of NADPH.
Substrate conversion was quantified by a combination of TLC analysis and scintillation spectrometry. The location of the metabolic products on the TLC plates was identified using an imaging scanner, the bands were scraped and analyzed by scintillation spectrometry. The amount of metabolite produced was calculated based on specific activity and scintillation counts. Each assay was repeated at least twice. Km and Vmax values were estimated using nonlinear regression analysis.

[1] = test system: excised leaves of control tobacco plants transformed with pBI121; test: In vivo herbicide metabolism assay, excised leaves of control tobacco; parameters: species or system Nicotiana tabacum cv SR1; details: after 14 hours; 1.2 nmol herbicide; standard error in parentheses; three pBI121 control plants
Protocol: Seeds from primary transgenic tobacco plants transformed with CYP71A10 and control plants transformed with the pBI121 vector were grown in Petri dishes containing MS salts and 100 μg/ml kanamycin. At five weeks post-seeding, kanamycin-resistant plantlets were transplanted into pots containing soil and grown an additional two weeks. Single leaves of approximately 10 cm^2 in size were excised and their petioles inserted into 100 μl of H2 O containing radiolabeled herbicide. The leaves were placed in a growth chamber maintaining a temperature of 27° C. and incubated until the entire volume of the herbicide solution was drawn up by the transpirational stream of the leaves (about 3 hrs). The leaves were subsequently transferred into an Eppendorf tube containing distilled water and further incubated for a total of 14 hours.
[^14 C]-labeled herbicide was extracted from the leaves by grinding for 5 minutes in 250 μl methanol with a plastic pellet pestle driven by an electric drill. After centrifugation for 3 minutes at 14,000 g, 75μl of the supernatant was spotted on a Whatman K6F silica plate and developed in a solvent system containing chloroforn/ethanol/acetic acid 135:10:15 (v/v/v). The separated herbicide derivatives were visualized using an imaging scanner. Substrate conversion was quantified based on the amount of herbicide absorbed, and the ratios of the parent compound and the produced metabolites determined from the TLC profiles.

## Cc1ccc(NC(=O)N(C)C)cc1Cl [Chlortoluron, chlortoluron]
Soybean CYP71A10; 45 minutes at 27° C., 0.75 mM NADPH, 2.5 mg/ml microsomal protein
  metabolites formed from the radiolabeled herbicide (TLC): two (a major and a minor) metabolites
Soybean CYP71A10; yeast microsomes containing CYP71A10, standard error in parentheses
  Turnover: 0.7 (0.05) min^-1
[1]
  % of herbicide metabolized, Control: 39 (7.5) %
